Source: patent publication US20170348258A1, “3-Amino Benzamide Derivative Serving As B-Lactam Auxiliary Antibiotic, Preparation Method and Use Thereof” (THE HONG KONG POLYTECHNIC UNIVERSITY, priority 2014, published 2017)

Assays:
[1] = system: MRSA strain 2516; assay: FICI of F332 with antibiotics; type: cell-based, S. aureus
[2] = system: MRSA strain 1449; assay: FICI of F332 with antibiotics; type: cell-based, S. aureus

CCCCCCCCCNc1ccc(F)c(C(N)=O)c1F [Compound F332, 2,6-difluoro-3-(nonylamino)benzamide]
FICI of F332 combined with Amoxicillin [1]: 0.38 | FICI of F332 combined with Cefuroxime [1]: 0.07 | FICI of F332 combined with Cloxacillin [1]: 0.19 | FICI of F332 combined with Meropenem [1]: 0.38 | FICI of F332 combined with Meticillin [1]: 0.19 | FICI of F332 combined with Amoxicillin [2]: 0.38 | FICI of F332 combined with Cefuroxime [2]: 1.50 | FICI of F332 combined with Cloxacillin [2]: 0.63 | FICI of F332 combined with Meropenem [2]: 33.0 | FICI of F332 combined with Meticillin [2]: 0.75
